Tests used:
[1] = system: Tyrosine-protein kinase ABL1 (Homo sapiens), P00519 [T315I]; details: at 10 µM
[2] = target: T1, Dual specificity mitogen-activated protein kinase kinase 4 (Homo sapiens) (UniProt P45985); details: at 10 µM
T1 sequence (whole entry): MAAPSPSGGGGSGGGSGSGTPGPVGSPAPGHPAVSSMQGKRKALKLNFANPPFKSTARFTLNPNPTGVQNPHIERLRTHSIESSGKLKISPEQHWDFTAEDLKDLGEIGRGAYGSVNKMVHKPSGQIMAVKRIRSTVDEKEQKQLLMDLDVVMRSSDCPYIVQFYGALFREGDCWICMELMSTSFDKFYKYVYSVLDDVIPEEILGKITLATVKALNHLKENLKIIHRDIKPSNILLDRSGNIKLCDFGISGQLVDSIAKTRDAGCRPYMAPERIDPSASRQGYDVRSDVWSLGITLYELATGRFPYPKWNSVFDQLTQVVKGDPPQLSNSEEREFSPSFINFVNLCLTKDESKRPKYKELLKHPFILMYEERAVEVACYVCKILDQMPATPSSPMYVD

[3] = target: Adenosine receptor A3 (Homo sapiens) (UniProt P0DMS8); test: Selectivity interaction (Eurofins CEREP Diversity Profile (receptors and ion channels)) EUB0000279b ADORA3; details: at 10 µM
[4] = target: T2, Inhibitor of nuclear factor kappa-B kinase subunit beta (Homo sapiens) (UniProt O14920); test: Selectivity interaction (Ambit KINOMEscan and KiNATiv profiling in Jurkat cells) EUB0000090b IKBKB; type: cell-based; details: at 1 µM
T2 sequence (whole entry): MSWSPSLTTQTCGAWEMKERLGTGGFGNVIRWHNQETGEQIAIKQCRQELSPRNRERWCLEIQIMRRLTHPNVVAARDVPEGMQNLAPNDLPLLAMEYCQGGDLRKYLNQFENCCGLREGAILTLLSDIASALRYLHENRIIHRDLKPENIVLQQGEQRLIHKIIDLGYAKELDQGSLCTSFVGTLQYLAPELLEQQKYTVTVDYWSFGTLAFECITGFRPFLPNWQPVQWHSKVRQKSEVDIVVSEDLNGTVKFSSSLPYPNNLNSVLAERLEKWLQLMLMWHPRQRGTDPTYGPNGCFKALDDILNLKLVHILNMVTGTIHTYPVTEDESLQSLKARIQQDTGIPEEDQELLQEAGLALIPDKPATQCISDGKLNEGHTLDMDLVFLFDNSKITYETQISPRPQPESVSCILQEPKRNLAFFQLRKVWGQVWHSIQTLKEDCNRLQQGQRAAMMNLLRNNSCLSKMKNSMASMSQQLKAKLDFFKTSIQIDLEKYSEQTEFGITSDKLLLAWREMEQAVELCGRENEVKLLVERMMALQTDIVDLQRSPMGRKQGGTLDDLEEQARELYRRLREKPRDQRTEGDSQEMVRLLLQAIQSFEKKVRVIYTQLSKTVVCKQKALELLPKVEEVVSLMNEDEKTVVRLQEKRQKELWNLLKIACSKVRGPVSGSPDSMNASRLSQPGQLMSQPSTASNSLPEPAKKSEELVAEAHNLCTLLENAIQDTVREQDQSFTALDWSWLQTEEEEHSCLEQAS

[5] = target: CDK7/Cyclin H/MNAT1 (Homo sapiens) (UniProt P51946+P50613+P51948); test: Selectivity interaction (Millipore kinase profiler) EUB0000124b CDK7; type: protein-complex assay; details: at 10 µM
[6] = target: Phosphatidylinositol 4,5-bisphosphate 3-kinase catalytic subunit gamma isoform (Homo sapiens) (UniProt P48736); test: Selectivity interaction (KinomeScan (DiscoverX)) EUB0000618a PIK3CG; details: at 10 µM
[7] = target: Cyclin-dependent kinase 13 (Homo sapiens, UniProt Q14004); test: Selectivity interaction (KinomeScan (DiscoverX)) EUB0001619a CDK13; details: at 1 µM
[8] = system: Fibroblast growth factor receptor 3 (Homo sapiens), P22607 [G697C]; test: (§1) Selectivity interaction (KinomeScan (DiscoverX)) EUB0001619a FGFR3; details: at 1 µM
[9] = target: Fibroblast growth factor receptor 3 (Homo sapiens, UniProt P22607); test: as §1; details: at 1 µM
[10] = target: Dual specificity protein kinase CLK1 (Homo sapiens, UniProt P49759); test: Selectivity interaction (KinomeScan (DiscoverX)) EUB0000045b CLK1
[11] = target: Casein kinase I isoform delta (Homo sapiens, UniProt P48730); test: Selectivity interaction (KinomeScan (DiscoverX)) EUB0000045b CSNK1D
[12] = target: Tyrosine-protein kinase SYK (Homo sapiens, UniProt P43405); test: Selectivity interaction (ActivX KiNativ screen (kinase selectivity in THP-1 cell lysates)) EUB0000639a SYK; type: subcellular; details: lysate, at 1 µM
[13] = target: T3, Tyrosine-protein kinase ITK/TSK (Homo sapiens) (UniProt Q08881); test: Selectivity interaction (ProQinase) EUB0000171b ITK
T3 sequence (whole entry): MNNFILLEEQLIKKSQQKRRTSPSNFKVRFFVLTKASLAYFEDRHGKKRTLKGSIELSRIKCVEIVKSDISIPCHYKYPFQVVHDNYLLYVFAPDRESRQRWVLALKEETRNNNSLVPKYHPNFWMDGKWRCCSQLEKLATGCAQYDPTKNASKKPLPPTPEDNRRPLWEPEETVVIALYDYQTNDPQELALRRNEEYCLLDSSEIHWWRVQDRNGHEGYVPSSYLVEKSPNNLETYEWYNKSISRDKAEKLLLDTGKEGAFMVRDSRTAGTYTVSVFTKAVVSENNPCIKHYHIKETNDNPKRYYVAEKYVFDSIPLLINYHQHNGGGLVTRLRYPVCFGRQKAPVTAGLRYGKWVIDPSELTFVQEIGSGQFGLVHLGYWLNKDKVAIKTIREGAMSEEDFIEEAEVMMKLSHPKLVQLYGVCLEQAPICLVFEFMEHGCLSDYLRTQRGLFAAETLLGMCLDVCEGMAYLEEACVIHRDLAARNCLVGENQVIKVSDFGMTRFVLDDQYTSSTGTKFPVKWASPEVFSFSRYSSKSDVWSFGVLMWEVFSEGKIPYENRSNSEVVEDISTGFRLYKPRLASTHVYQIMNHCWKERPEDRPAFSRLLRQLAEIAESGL

[14] = target: Phosphatidylinositol 4-kinase type 2-beta (Homo sapiens) (UniProt Q8TCG2); test: Selectivity interaction (ProQinase) EUB0000171b PI4K2B
[15] = target: Phosphatidylinositol 3-kinase catalytic subunit type 3 (Homo sapiens, UniProt Q8NEB9); test: Selectivity interaction (ProQinase) EUB0000171b PIK3C3
[16] = target: MAP/microtubule affinity-regulating kinase 3 (Homo sapiens) (UniProt P27448); test: Selectivity interaction (KinomeScan (DiscoverX)) EUB0000092b MARK3; details: at 10 µM
[17] = target: Ephrin type-A receptor 2 (Homo sapiens) (UniProt P29317); test: Selectivity interaction (Kinase panel (Z-LYTE Assay)) EUB0001632a EPHA2; details: at 10 µM

Phosphatidylinositol 3-kinase catalytic subunit type 3, sequence (Q8NEB9 whole entry): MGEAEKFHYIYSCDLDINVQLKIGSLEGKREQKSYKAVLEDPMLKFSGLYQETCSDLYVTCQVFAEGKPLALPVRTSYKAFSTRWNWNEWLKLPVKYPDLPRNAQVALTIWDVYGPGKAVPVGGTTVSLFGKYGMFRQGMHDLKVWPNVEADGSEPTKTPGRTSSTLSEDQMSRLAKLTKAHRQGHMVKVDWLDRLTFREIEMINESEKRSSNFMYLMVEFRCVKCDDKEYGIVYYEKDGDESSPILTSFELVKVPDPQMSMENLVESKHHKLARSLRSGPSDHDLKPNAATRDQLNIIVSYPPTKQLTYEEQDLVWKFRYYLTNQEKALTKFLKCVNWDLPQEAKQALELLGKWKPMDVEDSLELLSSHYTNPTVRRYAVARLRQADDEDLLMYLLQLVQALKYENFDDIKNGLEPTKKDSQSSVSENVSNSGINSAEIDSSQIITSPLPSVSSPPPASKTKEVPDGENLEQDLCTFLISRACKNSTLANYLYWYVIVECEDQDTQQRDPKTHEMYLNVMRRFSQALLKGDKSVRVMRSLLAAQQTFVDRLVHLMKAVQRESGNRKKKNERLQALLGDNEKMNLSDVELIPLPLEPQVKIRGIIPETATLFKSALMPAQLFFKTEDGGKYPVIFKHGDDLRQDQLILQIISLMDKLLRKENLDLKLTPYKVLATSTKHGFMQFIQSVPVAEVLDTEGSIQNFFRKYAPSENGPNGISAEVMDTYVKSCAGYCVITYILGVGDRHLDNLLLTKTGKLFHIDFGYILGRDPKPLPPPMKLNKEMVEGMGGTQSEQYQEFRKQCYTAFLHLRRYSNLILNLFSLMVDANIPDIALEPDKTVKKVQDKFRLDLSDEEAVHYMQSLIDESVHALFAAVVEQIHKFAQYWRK
Dual specificity protein kinase CLK1, sequence (P49759 whole entry, looked up, canonical isoform): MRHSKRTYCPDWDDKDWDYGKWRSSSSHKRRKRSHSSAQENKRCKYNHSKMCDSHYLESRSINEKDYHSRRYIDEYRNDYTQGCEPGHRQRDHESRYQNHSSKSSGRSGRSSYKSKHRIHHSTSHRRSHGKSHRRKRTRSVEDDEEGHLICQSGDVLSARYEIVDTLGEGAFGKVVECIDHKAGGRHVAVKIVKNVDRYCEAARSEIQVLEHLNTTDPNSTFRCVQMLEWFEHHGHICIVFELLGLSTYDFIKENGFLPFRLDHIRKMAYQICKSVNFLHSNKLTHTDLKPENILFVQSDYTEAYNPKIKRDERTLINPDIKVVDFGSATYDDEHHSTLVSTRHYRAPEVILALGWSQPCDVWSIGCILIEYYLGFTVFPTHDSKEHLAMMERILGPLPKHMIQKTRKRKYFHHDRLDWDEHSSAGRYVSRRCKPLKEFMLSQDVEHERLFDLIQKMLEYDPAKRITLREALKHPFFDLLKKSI
Phosphatidylinositol 4-kinase type 2-beta (Homo sapiens), sequence (Q8TCG2 whole entry): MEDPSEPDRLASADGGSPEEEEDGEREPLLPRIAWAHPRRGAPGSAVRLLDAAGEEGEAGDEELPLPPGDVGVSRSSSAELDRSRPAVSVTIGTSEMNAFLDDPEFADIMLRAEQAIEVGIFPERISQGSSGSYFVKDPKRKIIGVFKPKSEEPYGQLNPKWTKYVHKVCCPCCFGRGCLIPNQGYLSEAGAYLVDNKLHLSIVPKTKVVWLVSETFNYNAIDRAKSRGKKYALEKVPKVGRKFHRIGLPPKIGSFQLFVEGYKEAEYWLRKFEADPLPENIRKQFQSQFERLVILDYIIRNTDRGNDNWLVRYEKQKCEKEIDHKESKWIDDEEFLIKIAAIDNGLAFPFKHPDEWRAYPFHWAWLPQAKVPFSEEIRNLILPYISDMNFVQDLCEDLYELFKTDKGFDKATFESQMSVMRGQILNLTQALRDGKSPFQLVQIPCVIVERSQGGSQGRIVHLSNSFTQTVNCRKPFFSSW
Casein kinase I isoform delta, sequence (P48730 whole entry, looked up, canonical isoform): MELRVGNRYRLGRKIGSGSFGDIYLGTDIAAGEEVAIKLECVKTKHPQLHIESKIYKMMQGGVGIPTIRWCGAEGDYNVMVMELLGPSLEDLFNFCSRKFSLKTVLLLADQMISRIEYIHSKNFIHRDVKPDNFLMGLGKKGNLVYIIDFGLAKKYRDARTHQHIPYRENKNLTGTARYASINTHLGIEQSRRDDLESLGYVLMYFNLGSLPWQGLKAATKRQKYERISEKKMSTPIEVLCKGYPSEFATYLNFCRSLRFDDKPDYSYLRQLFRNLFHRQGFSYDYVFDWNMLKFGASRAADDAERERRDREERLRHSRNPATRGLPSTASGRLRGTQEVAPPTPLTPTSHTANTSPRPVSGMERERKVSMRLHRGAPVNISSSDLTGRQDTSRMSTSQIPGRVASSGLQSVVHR
Cyclin-dependent kinase 13, sequence (Q14004 whole entry, looked up): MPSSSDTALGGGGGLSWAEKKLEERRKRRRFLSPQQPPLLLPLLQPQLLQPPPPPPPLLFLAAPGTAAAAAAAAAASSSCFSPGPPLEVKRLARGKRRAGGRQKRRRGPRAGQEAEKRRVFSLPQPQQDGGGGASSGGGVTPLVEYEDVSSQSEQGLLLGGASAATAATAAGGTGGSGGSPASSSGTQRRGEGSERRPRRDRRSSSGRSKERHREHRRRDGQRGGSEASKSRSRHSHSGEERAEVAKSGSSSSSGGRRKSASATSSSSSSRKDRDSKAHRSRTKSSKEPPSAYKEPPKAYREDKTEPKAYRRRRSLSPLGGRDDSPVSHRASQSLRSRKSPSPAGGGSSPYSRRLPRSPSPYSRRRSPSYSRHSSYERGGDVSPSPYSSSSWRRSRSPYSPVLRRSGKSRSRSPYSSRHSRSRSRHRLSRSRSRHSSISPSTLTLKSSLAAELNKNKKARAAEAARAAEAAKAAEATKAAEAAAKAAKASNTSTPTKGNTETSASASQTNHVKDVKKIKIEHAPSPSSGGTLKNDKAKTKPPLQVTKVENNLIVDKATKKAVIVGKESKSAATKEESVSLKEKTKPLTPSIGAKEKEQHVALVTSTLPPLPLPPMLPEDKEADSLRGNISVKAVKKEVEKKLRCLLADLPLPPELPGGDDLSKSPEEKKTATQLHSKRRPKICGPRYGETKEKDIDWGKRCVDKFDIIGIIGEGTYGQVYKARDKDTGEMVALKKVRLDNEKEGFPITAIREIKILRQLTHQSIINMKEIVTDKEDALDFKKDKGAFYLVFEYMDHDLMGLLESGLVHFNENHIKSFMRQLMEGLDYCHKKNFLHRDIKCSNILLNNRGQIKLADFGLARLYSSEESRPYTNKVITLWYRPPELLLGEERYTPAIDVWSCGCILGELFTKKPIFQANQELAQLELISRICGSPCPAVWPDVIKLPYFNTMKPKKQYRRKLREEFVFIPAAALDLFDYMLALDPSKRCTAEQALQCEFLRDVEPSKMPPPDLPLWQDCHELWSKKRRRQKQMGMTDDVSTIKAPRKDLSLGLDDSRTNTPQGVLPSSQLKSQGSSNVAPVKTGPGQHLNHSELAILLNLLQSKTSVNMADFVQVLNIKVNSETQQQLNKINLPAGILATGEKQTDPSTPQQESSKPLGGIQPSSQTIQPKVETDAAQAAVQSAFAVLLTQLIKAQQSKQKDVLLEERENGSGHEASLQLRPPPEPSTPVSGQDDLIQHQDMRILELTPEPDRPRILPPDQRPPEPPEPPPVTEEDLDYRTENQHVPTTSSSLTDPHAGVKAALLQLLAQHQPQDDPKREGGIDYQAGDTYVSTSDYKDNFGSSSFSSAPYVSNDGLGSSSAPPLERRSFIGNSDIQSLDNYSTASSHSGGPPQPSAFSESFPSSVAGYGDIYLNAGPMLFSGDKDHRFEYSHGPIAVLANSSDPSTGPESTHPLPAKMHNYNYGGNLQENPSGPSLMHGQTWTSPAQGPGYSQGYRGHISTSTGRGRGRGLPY
Fibroblast growth factor receptor 3 (Homo sapiens), P22607 [G697C], sequence (P22607 whole entry G697C): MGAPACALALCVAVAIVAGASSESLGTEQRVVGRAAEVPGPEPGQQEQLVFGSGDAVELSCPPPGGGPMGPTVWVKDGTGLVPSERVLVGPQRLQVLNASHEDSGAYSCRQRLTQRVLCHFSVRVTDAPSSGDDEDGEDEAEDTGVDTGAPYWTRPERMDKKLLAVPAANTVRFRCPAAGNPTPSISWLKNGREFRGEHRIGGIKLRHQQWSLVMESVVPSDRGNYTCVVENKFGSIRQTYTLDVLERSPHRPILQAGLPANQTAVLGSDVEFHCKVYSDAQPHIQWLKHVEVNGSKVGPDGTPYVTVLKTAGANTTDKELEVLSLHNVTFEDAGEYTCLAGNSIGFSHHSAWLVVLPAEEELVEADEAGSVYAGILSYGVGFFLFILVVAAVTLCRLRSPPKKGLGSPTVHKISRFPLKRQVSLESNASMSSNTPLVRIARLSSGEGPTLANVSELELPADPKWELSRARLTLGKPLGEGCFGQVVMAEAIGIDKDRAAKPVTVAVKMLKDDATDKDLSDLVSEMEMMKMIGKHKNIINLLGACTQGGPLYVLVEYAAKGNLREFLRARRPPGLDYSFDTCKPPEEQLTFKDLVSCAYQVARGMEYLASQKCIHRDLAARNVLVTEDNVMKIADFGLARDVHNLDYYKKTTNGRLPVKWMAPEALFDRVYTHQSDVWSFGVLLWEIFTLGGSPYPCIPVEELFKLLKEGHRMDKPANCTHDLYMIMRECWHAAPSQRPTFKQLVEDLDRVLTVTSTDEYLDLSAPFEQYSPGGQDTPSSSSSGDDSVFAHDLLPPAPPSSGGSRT
Adenosine receptor A3 (Homo sapiens), sequence (P0DMS8 whole entry): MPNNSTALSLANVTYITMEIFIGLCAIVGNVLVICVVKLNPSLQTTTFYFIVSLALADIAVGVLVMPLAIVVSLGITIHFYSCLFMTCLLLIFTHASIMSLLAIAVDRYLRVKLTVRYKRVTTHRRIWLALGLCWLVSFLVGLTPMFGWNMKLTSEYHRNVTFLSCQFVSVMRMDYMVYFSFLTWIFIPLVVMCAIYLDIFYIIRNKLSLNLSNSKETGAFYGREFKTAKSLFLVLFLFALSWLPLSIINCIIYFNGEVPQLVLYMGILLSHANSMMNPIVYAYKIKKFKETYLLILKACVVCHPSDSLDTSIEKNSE

CCN(CC)CCCCNc1ncc2cc(-c3cc(OC)cc(OC)c3)c(NC(=O)NC(C)(C)C)nc2n1
% of control [1]: 100% | % of control [2]: 100%

CC(=O)c1cc(-c2ccccc2OCC2CC2)c2ncccn12
% of control [3]: 23%

CN(C)C/C=C/C(=O)Nc1ccc(C(=O)N2CCCC(Nc3ncc(Cl)c(-c4c[nH]c5ccccc45)n3)C2)cc1 (configuration not stated)
% of control [4]: 73%

CC(=O)Nc1cccc(-n2c(=O)n(C3CC3)c(=O)c3c(Nc4ccc(I)cc4F)n(C)c(=O)c(C)c32)c1
% of control [5]: 106%

O[C@H]1CC[C@H](Nc2ncc3nc(Nc4c(F)cc(F)cc4F)n([C@H]4CCOC4)c3n2)CC1
% of control [6]: 100%

N#Cc1cccc(-c2c[nH]c3ncnc(N4CCOCC4)c23)c1
% of control [7]: 100% | % of control [8]: 100% | % of control [9]: 100%

C=CC(=O)Nc1cc(-n2c(=O)ccc3cnc4ccc(-c5ccc(NS(C)(=O)=O)cc5)cc4c32)ccc1C
% of control ([10]; at 1 µM): 95% | % of control ([10]; at 10 µM): 86% | % of control ([11]; at 1 µM): 84% | % of control ([11]; at 10 µM): 90%

CC[C@@H]1[C@H](F)C(=O)N[C@@H]1COc1nccc2cc(C(N)=O)c(OC)cc12 [ZIMLOVISERTIB]
% of inhibition [12]: -0.8%

C=CC(=O)Nc1cccc(C(=O)Nc2ccc(Nc3cc(-c4[nH]c(SC)nc4C)ccn3)cc2)c1
% of control ([13]; at 1 µM): 95% | % of control ([13]; at 5 µM): 81% | % of control ([14]; at 1 µM): 128% | % of control ([14]; at 5 µM): 120% | % of control ([15]; at 1 µM): 108% | % of control ([15]; at 5 µM): 103%

CCC(=O)N1CCN(c2ccc(-n3c(=O)ccc4cnc5ccc(-c6cnc7ccccc7c6)cc5c43)cc2C(F)(F)F)CC1
% of control [16]: 100%

Cn1cc(-n2cnc3c(NCc4nc5cc(Cl)c(Cl)cc5[nH]4)nc(N4CCOCC4)nc32)cn1
% of control [17]: 14.4%
